# Reference: US8324177B2, “Triterpene compositions and methods for use thereof” (Research Development Foundation, priority 1998, dated 2012)
# Test system: poly (ADP-ribose) polymerase (PARP) cleavage in Jurkat cells
# Assay: Immunoblot analysis of PARP degradation
# Type: cell-based, human
# Settings: 100 μM, 1 h pretreatment
# Experimental: Apoptosis induced by F035 & D1 was examined by proteolytic cleavage of poly (ADP-ribose) polymerase (PARP). Jurkat cells (2×10^6/ml) were treated with F035 (2 μg/ml) and D1 (2 μg/ml) for different lengths of time. Cell lysates were prepared in buffer containing 20 mM HEPES, 250 mM NaCl, 2 mM EDTA, 0.1% NP-40, 2 μg/ml leupeptin, 2 μg/ml aprotinin, 0.5 μg/ml benzamidine, 1 mM DTT and 1 mM PMSF. Cellular proteins (60 μg/ml) were separated on a 7.5% SDS polyacrylamide gel and electrotransferred onto a nitrocellulose membrane. The membrane was probed first with monclonal anti-PARP antibody (PharMingen) and then with anti-mouse antibody conjugated to horse radish peroxidase (HRPO). Protein bands were detected by chemiluminescense (ECL, Amersham). The extent of cleavage of the 116-kDa PARP into 85-kDa and 41-kDa peptide products was used as a measure of apoptosis (Tewari et al., 1995).
substance,measurement,value
z-vad fmk,Effect on F035 induced cleavage of PARP (in words),completely reversed
